Experimental data from ChEMBL document CHEMBL1201862, “PubChem BioAssay data set” (2004).
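Protocol summary: plate cells (96-well), add compound at 5 concentrations, incubate 48 h, interpolate endpoints linearly. GI50: concentration for 50% inhibition of growth.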 Calls of active or inactive are those of the source. Rule as the data show it: active = GI50 up to about 1.1 µM and inactive = higher.

Key:
Assay in all cases: NCI anticancer screen, dose series, 48 h
CAKI-1 = test system: CAKI-1
EKVX = test system: EKVX
HT-29 = test system: HT-29
IGROV-1 = test system: IGROV-1
K562 = test system: K562
LOX IMVI = test system: LOX IMVI
MCF7 = test system: MCF7
MDA-N = test system: MDA-N
NCI-H23 = test system: NCI-H23
NCI-H460 = test system: NCI-H460
NCI/ADR-RES = test system: NCI/ADR-RES
OVCAR-8 = test system: OVCAR-8
SF-539 = test system: SF-539
SK-MEL-2 = test system: SK-MEL-2
SK-MEL-5 = test system: SK-MEL-5
SNB-19 = test system: SNB-19
T47D = test system: T47D
TK-10 = test system: TK-10
U-251 = test system: U-251
UO-31 = test system: UO-31

SMILES	GI50 (CAKI-1)	GI50 (EKVX)	GI50 (HT-29)	GI50 (IGROV-1)	GI50 (K562)	GI50 (LOX IMVI)	GI50 (MCF7)	GI50 (MDA-N)	GI50 (NCI-H23)	GI50 (NCI-H460)	GI50 (NCI/ADR-RES)	GI50 (OVCAR-8)	GI50 (SF-539)	GI50 (SK-MEL-2)	GI50 (SK-MEL-5)	GI50 (SNB-19)	GI50 (T47D)	GI50 (TK-10)	GI50 (U-251)	GI50 (UO-31)
CNC1C(O)CC(OC2C/C=C(\C)C/C(C)=C/C=C/CCC(C)CNC(=O)/C=C/C=C/C2C)OC1C (stereo not given)	0.877 µM (active)	1.6 µM (inactive)	0.224 µM (active)	1.29 µM (inactive)	0.0995 µM (active)	0.103 µM (active)	0.782 µM (active)	0.34 µM (active)	0.863 µM (active)	0.173 µM (active)	0.718 µM (active)	0.324 µM (active)	0.918 µM (active)	1.19 µM (inactive)	0.811 µM (active)	2.84 µM (inactive)	0.783 µM (active)	1.1 µM (active)	0.521 µM (active)	2.85 µM (inactive)
O=[N+]([O-])c1ccc(N2CCC(CCCC3CCN(c4ccc([N+](=O)[O-])cc4[N+](=O)[O-])CC3)CC2)c([N+](=O)[O-])c1	19 µM (inactive)	15.8 µM (inactive)	8.11 µM (inactive)	11.1 µM (inactive)	22.3 µM (inactive)	14.8 µM (inactive)	14.2 µM (inactive)	16.1 µM (inactive)	21.2 µM (inactive)	14.3 µM (inactive)	20.7 µM (inactive)	16.1 µM (inactive)	18.4 µM (inactive)	16.9 µM (inactive)	15.1 µM (inactive)	16.1 µM (inactive)	5.64 µM (inactive)	16.9 µM (inactive)	14.8 µM (inactive)	11.9 µM (inactive)
C=C(C1=CC(=O)C(C)(C)O1)[C@@H]1CC=C([C@@H]2CC[C@H]3[C@@]2(C)CC[C@H]2C(C)(C)C(=O)[C@H](O)C[C@]32C)[C@H](O)O1	3.89 µM (inactive)	10.1 µM (inactive)	1.87 µM (inactive)	2.18 µM (inactive)	1.71 µM (inactive)	1.81 µM (inactive)	0.546 µM (active)	1.67 µM (inactive)	3.85 µM (inactive)	13 µM (inactive)	3.98 µM (inactive)	2.07 µM (inactive)	1.34 µM (inactive)	2.2 µM (inactive)	11.7 µM (inactive)	10.2 µM (inactive)	1.44 µM (inactive)	1.19 µM (inactive)	1.62 µM (inactive)	1.53 µM (inactive)
OCCN=C1c2ccccc2C2C(c3ccccc31)C1c3ccccc3C(=NCCO)c3ccccc3C21 (stereo not given)	16.3 µM (inactive)	35.9 µM (inactive)	15.4 µM (inactive)	15.5 µM (inactive)	12.6 µM (inactive)	22 µM (inactive)	20.3 µM (inactive)	15.6 µM (inactive)	44.7 µM (inactive)	26.9 µM (inactive)	22.2 µM (inactive)	26.9 µM (inactive)	18 µM (inactive)	16.4 µM (inactive)	16.8 µM (inactive)	10.7 µM (inactive)	21.6 µM (inactive)	26.4 µM (inactive)	20.2 µM (inactive)	12.5 µM (inactive)
N#CC(C#N)=C1SC(=N\c2ccccc2)/C(=N/c2ccccc2)N1c1ccccc1	11.8 µM (inactive)	36.6 µM (inactive)	24.2 µM (inactive)	13.9 µM (inactive)	2.3 µM (inactive)	10.7 µM (inactive)	13.4 µM (inactive)	12.4 µM (inactive)	29.6 µM (inactive)	19.2 µM (inactive)	26.4 µM (inactive)	22.6 µM (inactive)	10.1 µM (inactive)	5.19 µM (inactive)	14.3 µM (inactive)	40.2 µM (inactive)	5.38 µM (inactive)	44.1 µM (inactive)	15.6 µM (inactive)	12.7 µM (inactive)
CCOC(=O)NC(Nc1cccc(F)c1)(C(F)(F)F)C(F)(F)F	> 100 µM (inactive)	> 100 µM (inactive)	> 100 µM (inactive)	> 100 µM (inactive)	48.4 µM (inactive)	> 100 µM (inactive)	> 100 µM (inactive)	> 100 µM (inactive)	> 100 µM (inactive)	> 100 µM (inactive)	> 100 µM (inactive)	> 100 µM (inactive)	> 100 µM (inactive)	> 100 µM (inactive)	> 100 µM (inactive)	> 100 µM (inactive)	> 100 µM (inactive)	> 100 µM (inactive)	> 100 µM (inactive)	4.94 µM (inactive)
CO/C=C(/C(=O)OC)c1ccccc1COc1cccc(C(F)(F)F)c1	4.84 µM (inactive)	3.56 µM (inactive)	4.14 µM (inactive)	4.57 µM (inactive)	3.76 µM (inactive)	1.16 µM (inactive)	5.35 µM (inactive)	2.54 µM (inactive)	2.26 µM (inactive)	1.22 µM (inactive)	5.31 µM (inactive)	8.69 µM (inactive)	4.97 µM (inactive)	11.6 µM (inactive)	0.473 µM (active)	22.1 µM (inactive)	15 µM (inactive)	3.18 µM (inactive)	3.22 µM (inactive)	4.17 µM (inactive)
Cc1ccc2ccc(O)cc2c1	38.1 µM (inactive)	43.4 µM (inactive)	53.6 µM (inactive)	20.7 µM (inactive)	20.2 µM (inactive)	30.2 µM (inactive)	31.2 µM (inactive)	20.1 µM (inactive)	37.8 µM (inactive)	89.1 µM (inactive)	24.8 µM (inactive)	23.3 µM (inactive)	38.4 µM (inactive)	38.1 µM (inactive)	57.4 µM (inactive)	> 100 µM (inactive)	35.3 µM (inactive)	> 100 µM (inactive)	23.1 µM (inactive)	23 µM (inactive)
CCN(CC)C(=S)/N=C(\SC(=S)N(CC)CC)c1ccccc1	26.9 µM (inactive)	38.5 µM (inactive)	0.392 µM (active)	21.4 µM (inactive)	1.29 µM (inactive)	15.1 µM (inactive)	3.6 µM (inactive)	15.7 µM (inactive)	36.9 µM (inactive)	6.1 µM (inactive)	35.5 µM (inactive)	56 µM (inactive)	51.4 µM (inactive)	30.7 µM (inactive)	0.569 µM (active)	> 94.8 µM (inactive)	25.2 µM (inactive)	> 89.5 µM (inactive)	58.5 µM (inactive)	27 µM (inactive)
N#CCCN(CCC#N)c1ccc(/C=C2\SC(=S)NC2=O)cc1Br	> 100 µM (inactive)	46.9 µM (inactive)	> 100 µM (inactive)	72.1 µM (inactive)	> 100 µM (inactive)	23.1 µM (inactive)	> 100 µM (inactive)	> 100 µM (inactive)	> 100 µM (inactive)	> 100 µM (inactive)	> 100 µM (inactive)	68.5 µM (inactive)	> 100 µM (inactive)	> 100 µM (inactive)	> 100 µM (inactive)	23.8 µM (inactive)	> 100 µM (inactive)	> 100 µM (inactive)	17.3 µM (inactive)	> 100 µM (inactive)
COC(=O)C1([C@@H]2C[C@@H](O)[C@]3(C)CC/C=C(\C)CCC[C@H](C)[C@H](O)[C@@H]2O3)CC1	> 100 µM (inactive)	81.7 µM (inactive)	42.5 µM (inactive)	37.3 µM (inactive)	34.8 µM (inactive)	61.4 µM (inactive)	41.9 µM (inactive)	72.3 µM (inactive)	50.4 µM (inactive)	32.7 µM (inactive)	39.4 µM (inactive)	88.9 µM (inactive)	91 µM (inactive)	73.3 µM (inactive)	39.4 µM (inactive)	46.7 µM (inactive)	46.6 µM (inactive)	57.7 µM (inactive)	71.9 µM (inactive)	23.8 µM (inactive)
Clc1cc(-c2ccccc2)nc2ccccc12	33.9 µM (inactive)	31.9 µM (inactive)	32.1 µM (inactive)	15.1 µM (inactive)	37.8 µM (inactive)	40 µM (inactive)	23.7 µM (inactive)	26 µM (inactive)	51.6 µM (inactive)	35.5 µM (inactive)	33.6 µM (inactive)	59.7 µM (inactive)	51.4 µM (inactive)	19.1 µM (inactive)	18.1 µM (inactive)	88.7 µM (inactive)	31.3 µM (inactive)	34 µM (inactive)	35.4 µM (inactive)	32.9 µM (inactive)
O=[N+]([O-])c1ccc(N/N=C/c2ccc(OCCCCCCCCCCCO)cc2)c([N+](=O)[O-])c1	3.34 µM (inactive)	17 µM (inactive)	1.48 µM (inactive)	6.05 µM (inactive)	1.15 µM (inactive)	7.64 µM (inactive)	6.05 µM (inactive)	3.58 µM (inactive)	14.4 µM (inactive)	2.5 µM (inactive)	2.73 µM (inactive)	2.71 µM (inactive)	1.97 µM (inactive)	10.3 µM (inactive)	1.77 µM (inactive)	6.12 µM (inactive)	5.22 µM (inactive)	5.19 µM (inactive)	2.37 µM (inactive)	7.35 µM (inactive)
COc1cc2c(cc1C)NC(=O)/C2=C/c1c(Cl)[nH]c2ccccc12	7.71 µM (inactive)	6.68 µM (inactive)	3.94 µM (inactive)	3.3 µM (inactive)	3.83 µM (inactive)	4.48 µM (inactive)	3.8 µM (inactive)	1.63 µM (inactive)	10.1 µM (inactive)	3.92 µM (inactive)	2.62 µM (inactive)	11.8 µM (inactive)	1.3 µM (inactive)	2.8 µM (inactive)	3.15 µM (inactive)	4.5 µM (inactive)	5.61 µM (inactive)	10.4 µM (inactive)	4.69 µM (inactive)	10.3 µM (inactive)
